Source: US5696096A, “Pradimicin derivatives” (Bristol-Myers Squibb Company, priority 1990, dated 1997)
Converted amounts (≈) assume the structure as drawn.

Key:
Experiment in all cases: In vitro antifungal activity (MIC), serial agar dilution method
Assay type in all cases: cell-based
Settings in all cases: Sabouraud dextrose agar, 40 hours at 28° C.
Aspergillus fumigatus = tested on: Aspergillus fumigatus
Protocol: (§1) Antifungal activities of representative compounds of the present invention were evaluated in vitro. The minimum inhibitory concentrations (MICs) against various fungi were determined by serial agar dilution method using Sabouraud dextrose agar. Thus, approximately 0.003 ml of fungal suspension containing 10^6 cells/ml was applied to the surface of agar plates containing the test antibiotics. The MIC values recorded after the cultures had been incubated for 40 hours at 28° C. are set forth below in Table 1.

Candida albicans = tested on: Candida albicans
Protocol: as §1

Cryptococcus neoformans = tested on: Cryptococcus neoformans
Protocol: as §1

[1] = tested on: Trichophyton mentagrophytes
Protocol: as §1

## CN[C@@H]1[C@H](O[C@@H]2O[C@H](C)[C@@H](O)[C@H](O)[C@H]2O)[C@@H](O)[C@H](O[C@H]2c3cc(C)c(C(=O)N[C@H](C)C(=O)O)c(O)c3-c3c(cc4c(c3O)C(=O)c3cc(OC)cc(O)c3C4=O)[C@@H]2O)O[C@@H]1C [Example 4, 3'-O-(6-Deoxy-β-D-glucopyranosyl)pradimicin B]
Aspergillus fumigatus
  MIC: 3.1 µg/mL (≈ 3.63 µM)
Candida albicans
  MIC: 25 µg/mL (≈ 29.2 µM)
Cryptococcus neoformans
  MIC: 1.6 µg/mL (≈ 1.87 µM)
[1]
  MIC: 1.6 µg/mL (≈ 1.87 µM)

## CN[C@@H]1[C@H](O[C@@H]2O[C@H](C)[C@H](O)[C@H](O)[C@H]2O)[C@@H](O)[C@H](O[C@H]2c3cc(C)c(C(=O)N[C@H](C)C(=O)O)c(O)c3-c3c(cc4c(c3O)C(=O)c3cc(OC)cc(O)c3C4=O)[C@@H]2O)O[C@@H]1C [Example 5, 3'-O-(β-D-Fucopyranosyl)pradimicin B]
Aspergillus fumigatus
  MIC: 3.1 µg/mL (≈ 3.63 µM)
Candida albicans
  MIC: 6.3 µg/mL (≈ 7.37 µM)
Cryptococcus neoformans
  MIC: 1.6 µg/mL (≈ 1.87 µM)
[1]
  MIC: 1.6 µg/mL (≈ 1.87 µM)

## CN[C@@H]1[C@H](O[C@H]2OC[C@H](O)[C@@H](O)[C@@H]2O)[C@@H](O)[C@H](O[C@H]2c3cc(C)c(C(=O)N[C@H](C)C(=O)O)c(O)c3-c3c(cc4c(c3O)C(=O)c3cc(OC)cc(O)c3C4=O)[C@@H]2O)O[C@@H]1C [Example 1, 3'-O-(β-L-xylopyranosyl)pradimicin B]
Aspergillus fumigatus
  MIC: > 100 µg/mL
Candida albicans
  MIC: 50 µg/mL (≈ 59.5 µM)
Cryptococcus neoformans
  MIC: 1.6 µg/mL (≈ 1.9 µM)
[1]
  MIC: > 100 µg/mL

## CN[C@@H]1[C@H](O[C@@H]2O[C@H](CO)[C@@H](O)[C@H](O)[C@H]2O)[C@@H](O)[C@H](O[C@H]2c3cc(C)c(C(=O)N[C@H](C)C(=O)O)c(O)c3-c3c(cc4c(c3O)C(=O)c3cc(OC)cc(O)c3C4=O)[C@@H]2O)O[C@@H]1C [Example 6, 3'-O-β-D-glucopyranosylpradimicin B]
Aspergillus fumigatus
  MIC: 3.1 µg/mL (≈ 3.56 µM)
Candida albicans
  MIC: 12.5 µg/mL (≈ 14.4 µM)
Cryptococcus neoformans
  MIC: 1.6 µg/mL (≈ 1.84 µM)
[1]
  MIC: 3.1 µg/mL (≈ 3.56 µM)

## CN[C@@H]1[C@H](O)[C@@H](O)[C@H](O[C@H]2c3cc(C)c(C(=O)N[C@H](C)C(=O)O)c(O)c3-c3c(cc4c(c3O)C(=O)c3cc(OC)cc(O)c3C4=O)[C@@H]2O)O[C@@H]1C [Pradimicin B, reference compound]
Aspergillus fumigatus
  MIC: 6.3 µg/mL (≈ 8.89 µM)
Candida albicans
  MIC: 3.1 µg/mL (≈ 4.37 µM)
Cryptococcus neoformans
  MIC: 0.8 µg/mL (≈ 1.13 µM)
[1]
  MIC: 6.3 µg/mL (≈ 8.89 µM)

## CN[C@@H]1[C@H](O[C@@H]2OC[C@H](O)[C@H](O)[C@H]2O)[C@@H](O)[C@H](O[C@H]2c3cc(C)c(C(=O)N[C@H](C)C(=O)O)c(O)c3-c3c(cc4c(c3O)C(=O)c3cc(OC)cc(O)c3C4=O)[C@@H]2O)O[C@@H]1C [Example 3, 3'-O-(α-L-Arabinopyranosyl)pradimicin B]
Aspergillus fumigatus
  MIC: 6.3 µg/mL (≈ 7.49 µM)
Candida albicans
  MIC: 6.3 µg/mL (≈ 7.49 µM)
Cryptococcus neoformans
  MIC: 1.6 µg/mL (≈ 1.9 µM)
[1]
  MIC: 6.3 µg/mL (≈ 7.49 µM)

## CN[C@@H]1[C@H](O[C@@H]2OC[C@@H](O)[C@H](O)[C@H]2O)[C@@H](O)[C@H](O[C@H]2c3cc(C)c(C(=O)N[C@H](C)C(=O)O)c(O)c3-c3c(cc4c(c3O)C(=O)c3cc(OC)cc(O)c3C4=O)[C@@H]2O)O[C@@H]1C [Pradimicin A, reference compound]
Aspergillus fumigatus
  MIC: 1.6 µg/mL (≈ 1.9 µM)
Candida albicans
  MIC: 50 µg/mL (≈ 59.5 µM)
Cryptococcus neoformans
  MIC: 0.8 µg/mL (≈ 0.951 µM)
[1]
  MIC: 1.6 µg/mL (≈ 1.9 µM)

## CN[C@@H]1[C@H](O[C@@H]2OC[C@@H](O)[C@@H](O)[C@H]2O)[C@@H](O)[C@H](O[C@H]2c3cc(C)c(C(=O)N[C@H](C)C(=O)O)c(O)c3-c3c(cc4c(c3O)C(=O)c3cc(OC)cc(O)c3C4=O)[C@@H]2O)O[C@@H]1C [Example 2, 3'-O-(β-D-Ribopyranosyl)-pradimicin B]
Aspergillus fumigatus
  MIC: 12.5 µg/mL (≈ 14.9 µM)
Candida albicans
  MIC: > 25 µg/mL
Cryptococcus neoformans
  MIC: 1.6 µg/mL (≈ 1.9 µM)
[1]
  MIC: 25 µg/mL (≈ 29.7 µM)
